In brackets after ≈: the same amount, converted by molar mass. Activity calls are given as the source filed them. The calls are words filed in the database; no cut-off is given here.
Columns and labels:
Plasma [1] = test: Anticoagulant activity in human plasma assessed as concentration required to double prothrombin time; type: functional
Trypsin = Trypsin (Homo sapiens, UniProt P07477+P07478+P35030); test: Inhibition of human trypsin; type: protein assay
Rattus norvegicus [2] = test: Anticoagulant activity in Sprague-Dawley rat deep vein thrombosis model assessed as prothrombin time change at 0.025 mg/kg, iv administered as bolus and 1 ug/kg/min administered as infusion relative to control; type: functional
[3] = Oral bioavailability in Sprague-Dawley rat at 30 mg/kg; type: ADME, organism-based; conditions: in vivo
Rattus norvegicus [4] = test: Anticoagulant activity in Sprague-Dawley rat deep vein thrombosis model assessed as activated partial thromboplastin time change at 0.1 mg/kg, iv administered as bolus and 4 ug/kg/min administered as infusion relative to control; type: functional
[5] = Oral bioavailability in monkey; type: ADME, organism-based, Macaca mulatta; conditions: rhesus monkey, in vivo
[6] = Plasma protein binding in human at 1 ug/ml by ultra-filtration method; type: ADME, cell-free; conditions: read-out: PPB (converted)
[7] = biological target: Tissue-type plasminogen activator (Homo sapiens, UniProt P00750); test: Inhibition of human t-PA
Sequence of Tissue-type plasminogen activator (P00750 whole entry): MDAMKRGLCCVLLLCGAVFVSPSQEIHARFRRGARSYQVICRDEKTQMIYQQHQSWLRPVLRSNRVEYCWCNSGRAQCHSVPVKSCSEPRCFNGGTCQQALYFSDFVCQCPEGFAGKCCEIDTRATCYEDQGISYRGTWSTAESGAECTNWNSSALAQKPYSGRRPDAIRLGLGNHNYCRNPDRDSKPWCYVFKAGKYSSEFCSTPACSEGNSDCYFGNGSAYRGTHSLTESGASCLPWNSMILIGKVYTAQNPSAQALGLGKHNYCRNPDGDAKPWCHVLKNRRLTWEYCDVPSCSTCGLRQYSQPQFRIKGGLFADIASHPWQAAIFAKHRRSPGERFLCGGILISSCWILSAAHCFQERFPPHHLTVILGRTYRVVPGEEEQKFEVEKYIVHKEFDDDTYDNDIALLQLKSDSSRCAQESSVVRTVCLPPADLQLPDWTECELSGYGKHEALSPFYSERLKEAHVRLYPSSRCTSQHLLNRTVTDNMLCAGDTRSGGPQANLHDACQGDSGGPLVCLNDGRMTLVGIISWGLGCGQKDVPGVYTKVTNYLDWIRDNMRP

[8] = Plasma protein binding in rat at 1 ug/ml by ultra-filtration method; type: ADME, cell-free; conditions: read-out: PPB (converted)
[9] = Cmax in Sprague-Dawley rat at 30 mg/kg, po; type: ADME, organism-based; design: dose 30 mg/kg, route oral; conditions: in vivo
Rattus norvegicus [10] = test: Anticoagulant activity in Sprague-Dawley rat deep vein thrombosis model assessed as prothrombin time change at 0.05 mg/kg, iv administered as bolus and 2 ug/kg/min administered as infusion relative to control; type: functional
[11] = Plasma protein binding in dog at 30 ug/ml by ultra-filtration method; type: ADME, cell-free, Canis lupus familiaris; conditions: read-out: PPB (converted)
[12] = Plasma protein binding in dog at 5 ug/ml by ultra-filtration method; type: ADME, cell-free, Canis lupus familiaris; conditions: read-out: PPB (converted)
Rattus norvegicus [13] = test: Anticoagulant activity in Sprague-Dawley rat deep vein thrombosis model assessed as reduction in wet clot weight at 50 ug/kg, iv administered as infusion; type: functional
Rattus norvegicus [14] = test: Anticoagulant activity in Sprague-Dawley rat deep vein thrombosis model assessed as prothrombin time change at 0.2 mg/kg, iv administered as bolus and 8 ug/kg/min administered as infusion relative to control; type: functional
Rattus norvegicus [15] = test: Anticoagulant activity in Sprague-Dawley rat deep vein thrombosis model assessed as wet clot weight at 0.2 mg/kg, iv administered as bolus and 8 ug/kg/min administered as infusion (reference value: 83 +/- 5.1 mg); type: functional
Plasma [16] = test: Anticoagulant activity in monkey plasma assessed as concentration required to double activated partial thromboplastin time; type: functional, Macaca mulatta
Plasma [17] = test: Anticoagulant activity in human plasma assessed as concentration required to double activated partial thromboplastin time; type: functional
[18] = Aqueous solubility of the compound at pH 6.62; type: physicochemical; conditions: aqueous solution
Rattus norvegicus [19] = test: Anticoagulant activity in Sprague-Dawley rat deep vein thrombosis model assessed as reduction in wet clot weight administered as iv bolus followed by infusion relative to control; type: functional, organism-based
[20] = Plasma protein binding in rat at 30 ug/ml by ultra-filtration method; type: ADME, cell-free; conditions: read-out: PPB (converted)
Homo sapiens [21] = species on record: Homo sapiens; test: Selectivity ratio of Ki for human factor 10a to Ki for human thrombin
[22] = Aqueous solubility of the compound at pH 4.7; type: physicochemical; conditions: aqueous solution
Rattus norvegicus [23] = test: Anticoagulant activity in Sprague-Dawley rat deep vein thrombosis model assessed as prothrombin time change at 0.25 mg/kg, iv administered as bolus and 10 ug/kg/min administered as infusion relative to control; type: functional
Rattus norvegicus [24] = test: Anticoagulant activity in Sprague-Dawley rat deep vein thrombosis model assessed as wet clot weight at 0.1 mg/kg, iv administered as bolus and 4 ug/kg/min administered as infusion (reference value: 83 +/- 5.1 mg); type: functional
[25] = Distribution coefficient, log D of the compound at pH 7 by potentiometric titration; type: physicochemical; conditions: octanol/water
Prothrombin [26] = biological target: T1, Prothrombin (Homo sapiens, UniProt P00734); test: Inhibition of plasma clot-bound thrombin (unknown origin) using S2238 as substrate
Rattus norvegicus [27] = test: Anticoagulant activity in Sprague-Dawley rat deep vein thrombosis model assessed as activated partial thromboplastin time change at 0.2 mg/kg, iv administered as bolus and 8 ug/kg/min administered as infusion relative to control; type: functional
Prothrombin [28] = biological target: T1, Prothrombin; test: Inhibition of free thrombin (unknown origin) using S2238 as substrate
Plasma [29] = test: Anticoagulant activity in rabbit plasma assessed as concentration required to double prothrombin time; type: functional, Oryctolagus cuniculus
[30] = AUC in Beagle dog at 10 mg/kg, po; type: ADME, organism-based, Canis lupus familiaris; design: dose 10 mg/kg, route oral; conditions: plasma
[31] = Dissociation constant, pKa of the compound by potentiometric titration; type: physicochemical
Plasma [32] = test: Anticoagulant activity in human plasma assessed as concentration required to double thrombin time; type: functional
Homo sapiens [33] = species on record: Homo sapiens; test: Selectivity ratio of Ki for human plasmin to Ki for human thrombin
Plasma [34] = test: Anticoagulant activity in monkey plasma assessed as concentration required to double prothrombin time; type: functional, Macaca mulatta
Rattus norvegicus [35] = test: Anticoagulant activity in Sprague-Dawley rat deep vein thrombosis model assessed as activated partial thromboplastin time change at 0.025 mg/kg, iv administered as bolus and 1 ug/kg/min administered as infusion relative to control; type: functional
Prothrombin [36] = biological target: T1, Prothrombin; test: Inhibition of human thrombin
Prothrombin [37] = biological target: T1, Prothrombin; test: Binding affinity to thrombin (unknown origin) by surface plasmon resonance analysis
Plasma [38] = test: Anticoagulant activity in rat plasma assessed as concentration required to double activated partial thromboplastin time; type: functional
Rattus norvegicus [39] = test: Anticoagulant activity in Sprague-Dawley rat deep vein thrombosis model assessed as activated partial thromboplastin time change at 0.05 mg/kg, iv administered as bolus and 2 ug/kg/min administered as infusion relative to control; type: functional
Homo sapiens [40] = species on record: Homo sapiens; test: Selectivity ratio of Ki for human trypsin to Ki for human thrombin
Prothrombin [41] = biological target: T1, Prothrombin; test: Inhibition of thrombin (unknown origin) assessed as fibrin clot formation
Plasma [42] = test: Anticoagulant activity in monkey plasma assessed as concentration required to double thrombin time; type: functional, Macaca mulatta
[43] = AUC in Sprague-Dawley rat at 30 mg/kg, po; type: ADME, organism-based; design: dose 30 mg/kg, route oral; conditions: plasma
Rattus norvegicus [44] = test: Anticoagulant activity in Sprague-Dawley rat deep vein thrombosis model assessed as prothrombin time change at 0.1 mg/kg, iv administered as bolus and 4 ug/kg/min administered as infusion relative to control; type: functional
[45] = Plasma protein binding in dog at 1 ug/ml by ultra-filtration method; type: ADME, cell-free, Canis lupus familiaris; conditions: read-out: PPB (converted)
[46] = Plasma protein binding in human at 30 ug/ml by ultra-filtration method; type: ADME, cell-free; conditions: read-out: PPB (converted)
Rattus norvegicus [47] = test: Anticoagulant activity in Sprague-Dawley rat deep vein thrombosis model assessed as wet clot weight at 0.05 mg/kg, iv administered as bolus and 2 ug/kg/min administered as infusion (reference value: 83 +/- 5.1 mg); type: functional
[48] = Plasma protein binding in rat at 5 ug/ml by ultra-filtration method; type: ADME, cell-free; conditions: read-out: PPB (converted)
Plasma [49] = test: Anticoagulant activity in rabbit plasma assessed as concentration required to double thrombin time; type: functional, Oryctolagus cuniculus
[50] = Cmax in Beagle dog at 10 mg/kg, po; type: ADME, organism-based, Canis lupus familiaris; design: dose 10 mg/kg, route oral; conditions: in vivo
Coagulation factor X = Coagulation factor X (Homo sapiens, UniProt P00742); test: Inhibition of human factor 10a
Sequence of Coagulation factor X (P00742 41-179 limits assumed): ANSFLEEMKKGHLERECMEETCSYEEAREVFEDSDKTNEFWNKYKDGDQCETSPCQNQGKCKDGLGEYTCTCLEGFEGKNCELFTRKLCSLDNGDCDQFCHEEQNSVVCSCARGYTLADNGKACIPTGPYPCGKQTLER
Sequence of Coagulation factor X (P00742 235-488 limits assumed): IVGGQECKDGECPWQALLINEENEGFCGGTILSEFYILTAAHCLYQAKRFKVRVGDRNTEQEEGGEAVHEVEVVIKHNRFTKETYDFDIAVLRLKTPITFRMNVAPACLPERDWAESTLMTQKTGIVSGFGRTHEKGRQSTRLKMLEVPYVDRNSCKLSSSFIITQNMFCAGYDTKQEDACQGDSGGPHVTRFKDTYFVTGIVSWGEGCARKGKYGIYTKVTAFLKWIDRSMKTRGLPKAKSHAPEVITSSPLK

Plasma [51] = test: Anticoagulant activity in rat plasma assessed as concentration required to double prothrombin time; type: functional
[52] = Plasma protein binding in human at 5 ug/ml by ultra-filtration method; type: ADME, cell-free; conditions: read-out: PPB (converted)
Plasma [53] = test: Anticoagulant activity in rat plasma assessed as concentration required to double thrombin time; type: functional
[54] = Aqueous solubility of the compound at pH 7.35; type: physicochemical; conditions: aqueous solution
Homo sapiens [55] = species on record: Homo sapiens; test: Selectivity ratio of Ki for human t-PA to Ki for human thrombin
Plasma [56] = test: Anticoagulant activity in rabbit plasma assessed as concentration required to double activated partial thromboplastin time; type: functional, Oryctolagus cuniculus
Plasminogen = Plasminogen (Homo sapiens, UniProt P00747); test: Inhibition of human plasmin
Sequence of Plasminogen (P00747 97-580 limits assumed): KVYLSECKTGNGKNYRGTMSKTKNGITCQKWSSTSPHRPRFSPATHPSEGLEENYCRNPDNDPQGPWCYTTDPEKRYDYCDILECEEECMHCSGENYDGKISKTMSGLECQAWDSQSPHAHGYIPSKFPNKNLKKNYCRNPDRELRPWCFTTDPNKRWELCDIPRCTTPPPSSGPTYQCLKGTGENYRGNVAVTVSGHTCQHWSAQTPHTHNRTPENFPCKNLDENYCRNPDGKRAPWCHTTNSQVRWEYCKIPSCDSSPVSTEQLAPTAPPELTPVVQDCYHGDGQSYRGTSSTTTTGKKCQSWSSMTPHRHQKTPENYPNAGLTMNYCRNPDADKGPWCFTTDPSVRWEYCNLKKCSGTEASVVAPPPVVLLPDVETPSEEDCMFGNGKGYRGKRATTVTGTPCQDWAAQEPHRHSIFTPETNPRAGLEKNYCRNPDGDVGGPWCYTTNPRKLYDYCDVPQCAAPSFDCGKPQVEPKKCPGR
Sequence of Plasminogen (P00747 581-810 limits assumed): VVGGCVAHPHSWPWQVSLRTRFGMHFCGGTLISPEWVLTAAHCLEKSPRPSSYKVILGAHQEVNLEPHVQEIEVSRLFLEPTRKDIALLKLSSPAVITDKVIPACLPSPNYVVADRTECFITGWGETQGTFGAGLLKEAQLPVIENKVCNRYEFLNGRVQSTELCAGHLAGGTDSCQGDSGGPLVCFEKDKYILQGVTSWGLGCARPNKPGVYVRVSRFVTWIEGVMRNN

Prothrombin [57] = biological target: T1, Prothrombin; test: Competitive inhibition of human thrombin at 0.25 to 1 nM by Lineweaver-Burk plot analysis
Rattus norvegicus [58] = test: Anticoagulant activity in Sprague-Dawley rat deep vein thrombosis model assessed as activated partial thromboplastin time change at 0.25 mg/kg, iv administered as bolus and 10 ug/kg/min administered as infusion relative to control; type: functional
[59] = Oral bioavailability in Beagle dog at 10 mg/kg; type: ADME, organism-based, Canis lupus familiaris; conditions: in vivo

For N=C(N)c1ccc(CNC(=O)[C@@H]2CCCN2C(=O)[C@@H](NCC(=O)O)C(c2ccccc2)c2ccccc2)s1, the 2PT (Plasma [1]) was 0.66 µM, the Activity (Plasma [1]) was “Dose-dependent effect” and the Ki (Trypsin) was 0.3 nM. The “fold change (FC)” value (Rattus norvegicus [2]) was 1.03, the bioavailability [3] was 30% and the “fold change (FC)” value (Rattus norvegicus [4]) was 3.58. It also gave a bioavailability [5] of 15%, a fraction unbound at 1 ug/ml [6] of 0.485 and a Ki [7] of 113 nM. The fraction unbound at 1 ug/ml [8] was 0.124, the Cmax [9] was 2900 ng/mL and the “fold change (FC)” value (Rattus norvegicus [10]) was 1.15. It also gave a fraction unbound at 30 ug/ml [11] of 0.216, a fraction unbound at 5 ug/ml [12] of 0.177 and an ED50 (Rattus norvegicus [13]) of 2 µg/kg/min. For the same molecule, the “fold change (FC)” value (Rattus norvegicus [14]) was 9.04, the Activity (Rattus norvegicus [15]) was 0 mg and the 2aPTT (Plasma [16]) was 0.51 µM. For the same molecule, the Activity (Plasma [16]; Macaca mulatta) was “Dose-dependent effect”, the 2aPTT (Plasma [17]) was 0.23 µM and the Activity (Plasma [17]) was “Dose-dependent effect”. For the same molecule, the solubility [18] was 570 µg/mL (≈ 1070 µM), the Activity (Rattus norvegicus [19]) was “Dose-dependent effect” and the fraction unbound at 30 ug/ml [20] was 0.182. For the same molecule, the Ratio Ki (Homo sapiens [21]) was > 10000, the solubility [22] was 15000 µg/mL (≈ 28200 µM) and the “fold change (FC)” value (Rattus norvegicus [23]) was 17.2. The Activity (Rattus norvegicus [24]) was 23 mg, the logD [25] was -0.088 and the IC50 (Prothrombin [26]) was 5 nM. For the same molecule, the “fold change (FC)” value (Rattus norvegicus [27]) was 5.58, the IC50 (Prothrombin [28]) was 2.1 nM and the 2PT (Plasma [29]) was 2.04 µM. The Activity (Plasma [29]; Oryctolagus cuniculus) was “Dose-dependent effect”, the AUC [30] was 12200 ng·h/mL and the pKa [31] was 1.91. For the same molecule, the 2TT (Plasma [32]) was 0.016 µM, the Activity (Plasma [32]) was “Dose-dependent effect” and the Ratio Ki (Homo sapiens [33]) was > 10000. The 2PT (Plasma [34]) was 0.3 µM, the Activity (Plasma [34]; Macaca mulatta) was “Dose-dependent effect” and the “fold change (FC)” value (Rattus norvegicus [35]) was 1.68. It also gave a Ki (Prothrombin [36]) of 0.02 nM, a Kd (Prothrombin [37]) of 0.18 nM and a 2aPTT (Plasma [38]) of 0.97 µM. For the same molecule, the Activity (Plasma [38]) was “Dose-dependent effect”, the “fold change (FC)” value (Rattus norvegicus [39]) was 2.77 and the Ratio Ki (Homo sapiens [40]) was 13.7. For the same molecule, the IC50 (Prothrombin [41]) was 16 nM, the 2TT (Plasma [42]) was >0.2 µM and the Activity (Plasma [42]; Macaca mulatta) was “Dose-dependent effect”. For the same molecule, the AUC [43] was 9270 ng·h/mL, the “fold change (FC)” value (Rattus norvegicus [44]) was 2.07 and the fraction unbound at 1 ug/ml [45] was 0.174. For the same molecule, the fraction unbound at 30 ug/ml [46] was 0.508, the Activity (Rattus norvegicus [47]) was 46 mg and the fraction unbound at 5 ug/ml [48] was 0.147. For the same molecule, the 2TT (Plasma [49]) was 0.019 µM, the Activity (Plasma [49]; Oryctolagus cuniculus) was “Dose-dependent effect” and the Cmax [50] was 6900 ng/mL. For the same molecule, the Ki (Coagulation factor X) was 2250 nM, the 2PT (Plasma [51]) was 1.12 µM and the Activity (Plasma [51]) was “Dose-dependent effect”. The fraction unbound at 5 ug/ml [52] was 0.482, the 2TT (Plasma [53]) was 0.01 µM and the Activity (Plasma [53]) was “Dose-dependent effect”. It also gave a solubility [54] of 460 µg/mL (≈ 862 µM), a Ratio Ki (Homo sapiens [55]) of 5210 and a 2aPTT (Plasma [56]) of 1.1 µM. For the same molecule, the Activity (Plasma [56]; Oryctolagus cuniculus) was “Dose-dependent effect”, the Ki (Plasminogen) was 7430 nM and the inhibition (Prothrombin [57]) was “Active”. The “fold change (FC)” value (Rattus norvegicus [58]) was 4.37 and the bioavailability [59] was 43%.

— ChEMBL document CHEMBL2417538, “Antithrombotic effects of LB30870, a potent, orally active, selective and direct thrombin inhibitor, and pharmacokinetics of its prodrug” (Bioorg Med Chem Lett, 2013)
